Assay [1] has as its system primary neurons. Briefly: Mitochondrial morphology and neurite area after functional modulators. On the set-up: key to Neurite Area: non-significant (n.s.). Particulars: for axonal mitochondrial circularity / neuritic area: after 48 h of treatment; for Mitochondrial Morphology / Neurite Area: significant change. The assay is classed as cell-based, mouse. On the procedure: Mitochondrial morphology and neurite area measurements. Mitochondrial morphology and neurite area were quantified using methods described by Varkuti et al, 2020. Briefly, Cre-dependent mitochondrial targeted GFP2 (mito-GFP) ROSA26 knock-in mice were crossed with Ai14 (007908, The Jackson Laboratory) expressing cytosolic-tdTomato, and the forebrain of P0 pups were isolated and primary neurons were cultured as described above. AAV9 virus containing the iCRE sequence driven by the neuron specific CaMKII promoter was added to the cell culture at plating and 75% of the media replaced 4 h after plating. […] Z-projected images of the green channel were preprocessed (background subtraction: rolling ball, radius=3; median filtering: radius=1) and somatic mitochondria were removed (see details in Varkuti et al, Science Advances 6 (2020) eaaw8702). Red channel images were also preprocessed (tubeness filter, soma removal). Preprocessed images were segmented by GE Developer software (object-based, kernel size: 3). […] The length and circularity measurements for mitochondria were aggregated using the median and the area for neurites using the sum. After removing empty fields and outlier values from the fields, aggregated field values were averaged to well values (4 fields/well, 12 wells/compound). Robust Z-scores were calculated using DMSO-treated wells for each well ((mediancompound−medianDMSO)/median absolute deviationDMSO), well values were averaged for each compound.
A high-content assay was developed in parallel to monitor aspects of mitochondrial dynamics in primary cultured neurons that conditionally express (Cre recombinase dependent) mitochondrial-tagged GFP and cytosolic tdTomato reporters (Varkuti et al., 2020). We monitored two aspects of neuritic mitochondrial dynamics: (1) the health of mitochondria as measured by the average circularity of axonal mitochondria, since defective mitochondria targeted for mitophagy become circular in shape, and (2) the balance between fission/fusion measured by the average length of dendritic mitochondria. […] FIG. 19A illustrates the results of surveying a collection of functional modulators selected from 5 different structural clusters (FIG. 17), quantified as robust z-scores relative to DMSO-treated control neurons.

Assay [2] concerns primary neurons. Briefly: CellTiter-Glo luminescence-based ATP assay. The assay is classed as cell-based, mouse. Particulars: for ATP: ATP orthogonal screen, 24 h; for EC50 / Emax: Mus musculus, Primary neuron, dose response; for EC50: 15 concentrations from 6 nM to 100 uM; for Emax: maximal percent increase relative to in-plate DMSO controls, read-out: ATP (Effect-size). The procedure, abridged:
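Primary neurons treated from DIV13 for 24 h with compound or DMSO. After part of the medium was removed, CellTiter-Glo reagent was added; plates were shaken 10 min at 200 rpm, kept 2 min in the dark at room temperature, and luminescence read as total ATP.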
(ATP-based viability assays read luminescence as a measure of living cells.)

SMILES strings stand for the structures. Structures can show the parent of a compound that is named as a salt.

Usually EC50 stands for the concentration at which the effect is half-maximal. Consider `CCCCOc1ccc(C(=O)CCN2CCCCC2)cc1` [DYCLONINE HYDROCHLORIDE], for which, in the assay on primary neurons [1], the axonal mitochondrial circularity entry was “robust effects”, the neuritic area entry is given as “increase”, the “Mitochondrial Morphology” value is recorded as “elongated” and the “Neurite Area” value is “increased”. In addition, in the assay with primary neurons [2], the ATP was 7.04 Z-scores, a half-maximal response (EC50) required 140 nM and the Emax was 20.7%. Moreover, in the assay on primary neurons [2] (after 24 hr of treatment), the “ATP production in neurons” value is given as “increased”.

Regarding `O=c1c(-c2ccc(O)cc2)coc2cc(O)cc(O)c12` [GENISTEIN], in the assay with primary neurons [1], the “Mitochondrial Morphology” value is on record as “elongated” and the “Neurite Area” value is listed as “n.s”. For the same compound, in the assay on primary neurons [2], the ATP is 5.96 Z-scores, the EC50 came out at 3000 nM and the Emax amounted to 20.6%.

For `COC(=O)[C@@H]1[C@H]2C[C@H]3c4[nH]c5ccccc5c4CCN3C[C@@H]2CC[C@@H]1O` [YOHIMBINE HYDROCHLORIDE], in the assay on primary neurons [1], the axonal mitochondrial circularity entry is “robust effects”, the neuritic area result is “increase”, the “Mitochondrial Morphology” value is on record as “elongated” and the “Neurite Area” value is recorded as “increased”. Besides, in the assay with primary neurons [2], the ATP is 3.11 Z-scores, the response was half-maximal at 270 nM (EC50) and the Emax stood at 23.6%.

Source of the values: patent publication US20230003721A1, “MITOTHERAPEUTICS FOR THE TREATMENT OF BRAIN DISORDERS” (The University of Florida Research Foundation, Inc., priority 2019, published 2023).
